Experimental data taken from paper PMC10141580, “Cyclic Dichalcogenides Extend the Reach of Bioreductive Prodrugs to Harness Thiol/Disulfide Oxidoreductases: Applications to seco-Duocarmycins Targeting the Thioredoxin System” (ACS Central Science, 2023).
Where “and” joins values, the source holds several entries; their conditions need not be identical. Identical values can stand only once. Like-named read-outs stand apart in the source and are kept apart here.

System: panel of 140 standard cancer cell lines
Assay: ProliFiler-140 cancer cell line screen (CellTiterGlo, 72 h)
Type: cell-based
Experimental: Incubations were performed for 72 h before automated viability readout with CellTiterGlo (Figure 8).
End of Figure S11 (part 5 of 5): ProliFiler-140 cancer cell line screening for cytotoxicity of the prodrugs.
8-data-point dose response curves from CellTiter-Glo® viability readout.
ProliFiler-140 cell line panel part V

## COc1cc2cc(C(=O)N3C[C@@H](CCl)c4c3cc(OC(=O)N(CCC(=O)N3CCN(C)CC3)C3CCCCC3)c3ccccc43)[nH]c2c(OC)c1OC [P-CC60-CBI-TMI]
786-O (Kidney), read-out: IC50 [M] (ProliFiler-140)
  IC50: 1.18e-07 M and 1.2e-07 M
786-O, read-out: IC50
  IC50: 1.2e-07 M
A172 (Brain), read-out: IC50 [M] (ProliFiler-140)
  IC50: 5.74e-07 M and 5.7e-07 M
A375 (Skin), read-out: IC50 [M] (ProliFiler-140)
  IC50: 1.64e-07 M and 1.6e-07 M
A427 (Lung), read-out: IC50 [M] (ProliFiler-140)
  IC50: 8.2e-07 M and 8.23e-07 M
A431 (Skin), read-out: IC50 [M] (ProliFiler-140)
  IC50: 2.62e-07 M and 2.6e-07 M
A498 (Kidney), read-out: IC50 [M] (ProliFiler-140)
  IC50: 3e-07 M
A498, read-out: IC50
  IC50: 3e-07 M
A549 (Lung), read-out: IC50 [M] (ProliFiler-140)
  IC50: 7.7e-07 M
A549, read-out: IC50
  IC50: 7.7e-07 M
A2058 (Skin), read-out: IC50 [M] (ProliFiler-140)
  IC50: 1e-07 M and 1.02e-07 M
A2780 (Ovary), read-out: IC50 [M] (ProliFiler-140)
  IC50: 8.9e-08 M and 8.89e-08 M
AsPC-1 (Pancreas), read-out: IC50 [M] (ProliFiler-140)
  IC50: 2.1e-06 M and 2.15e-06 M
BEN (Lung), read-out: IC50 [M] (ProliFiler-140)
  IC50: 1.4e-06 M and 1.42e-06 M
BT-20 (Breast), read-out: IC50 [M] (ProliFiler-140)
  IC50: 1.1e-06 M and 1.11e-06 M
BxPC-3 (Pancreas), read-out: IC50 [M] (ProliFiler-140)
  IC50: 6.62e-07 M and 6.6e-07 M
CAKI-1, read-out: IC50
  IC50: 3.3e-07 M
COR-L279 (Lung), read-out: IC50 [M] (ProliFiler-140)
  IC50: 7.4e-08 M and 7.36e-08 M
COV434 (Ovary), read-out: IC50 [M] (ProliFiler-140)
  IC50: 1.1e-07 M and 1.15e-07 M
Caki-1 (Kidney), read-out: IC50 [M] (ProliFiler-140)
  IC50: 3.29e-07 M and 3.3e-07 M
Caki-2 (Kidney), read-out: IC50 [M] (ProliFiler-140)
  IC50: 1.51e-06 M and 1.5e-06 M
Calu-6 (Lung), read-out: IC50 [M] (ProliFiler-140)
  IC50: 3.42e-07 M and 3.4e-07 M
Colo 205 (Colon), read-out: IC50 [M] (ProliFiler-140)
  IC50: 7.6e-07 M and 7.61e-07 M
DLD-1 (Colon), read-out: IC50 [M] (ProliFiler-140)
  IC50: 7.91e-07 M and 7.9e-07 M
DU-145 (Prostate), read-out: IC50 [M] (ProliFiler-140)
  IC50: 1.8e-07 M and 1.83e-07 M
DV90 (Lung), read-out: IC50 [M] (ProliFiler-140)
  IC50: 9e-08 M and 9.04e-08 M
Detroit562 (Head/Neck), read-out: IC50 [M] (ProliFiler-140)
  IC50: 3.15e-07 M and 3.2e-07 M
EFM-19 (Breast), read-out: IC50 [M] (ProliFiler-140)
  IC50: 9.6e-07 M and 9.62e-07 M
EFM-192A (Breast), read-out: IC50 [M] (ProliFiler-140)
  IC50: 1.8e-06 M and 1.78e-06 M
EFO-27 (Ovary), read-out: IC50 [M] (ProliFiler-140)
  IC50: 9e-07 M
EPLC-272H (Lung), read-out: IC50 [M] (ProliFiler-140)
  IC50: 5.08e-07 M and 5.1e-07 M
H4 (Brain), read-out: IC50 [M] (ProliFiler-140)
  IC50: 8.08e-08 M and 8.1e-08 M
H460 (Lung), read-out: IC50 [M] (ProliFiler-140)
  IC50: 5.1e-08 M and 5.12e-08 M
H1299 (Lung), read-out: IC50 [M] (ProliFiler-140)
  IC50: 7.27e-07 M and 7.3e-07 M
H2228 (Lung), read-out: IC50 [M] (ProliFiler-140)
  IC50: 3.99e-07 M and 4e-07 M
HCC38 (Breast), read-out: IC50 [M] (ProliFiler-140)
  IC50: 1.65e-07 M and 1.7e-07 M
HCC202 (Breast), read-out: IC50 [M] (ProliFiler-140)
  IC50: 9e-07 M and 8.97e-07 M
HCC827 (Lung), read-out: IC50 [M] (ProliFiler-140)
  IC50: 1.4e-06 M and 1.38e-06 M
HCC 1569 (Breast), read-out: IC50 [M] (ProliFiler-140)
  IC50: 9.9e-07 M and 9.93e-07 M
HCT116 (Colon), read-out: IC50 [M] (ProliFiler-140)
  IC50: 4.41e-07 M and 4.4e-07 M
HCT116, read-out: IC50
  IC50: 4.4e-07 M
HCT-15 (Colon), read-out: IC50 [M] (ProliFiler-140)
  IC50: 5.46e-07 M and 5.5e-07 M
HCT-15, read-out: IC50
  IC50: 5.5e-07 M
HEC-1-A (Endometrium), read-out: IC50 [M] (ProliFiler-140)
  IC50: 1.8e-06 M and 1.84e-06 M
HEC-1-B (Endometrium), read-out: IC50 [M] (ProliFiler-140)
  IC50: 3.3e-06 M and 3.29e-06 M
HL-60 (Blood), read-out: IC50 [M] (ProliFiler-140)
  IC50: 1e-07 M and 1.01e-07 M
HL-60, read-out: IC50
  IC50: 1e-07 M
HT-29 (Colon), read-out: IC50 [M] (ProliFiler-140)
  IC50: 1e-06 M and 9.98e-07 M
HT-29, read-out: IC50
  IC50: 1e-06 M
HT-1080 (Fibrosarcoma), read-out: IC50 [M] (ProliFiler-140)
  IC50: 3.2e-07 M
Hep3B2.1-7 (Liver), read-out: IC50 [M] (ProliFiler-140)
  IC50: 1.3e-06 M and 1.34e-06 M
Hs 746T (Stomach), read-out: IC50 [M] (ProliFiler-140)
  IC50: 9.9e-07 M and 9.89e-07 M
HuH7 (Liver), read-out: IC50 [M] (ProliFiler-140)
  IC50: 6.47e-07 M and 6.5e-07 M
Hutu 80 (Duodenum), read-out: IC50 [M] (ProliFiler-140)
  IC50: 5.37e-08 M and 5.4e-08 M
Ishikawa (Endometrium), read-out: IC50 [M] (ProliFiler-140)
  IC50: 2.6e-08 M and 2.61e-08 M
J82 (Bladder), read-out: IC50 [M] (ProliFiler-140)
  IC50: 7.2e-07 M
JIMT-1 (Breast), read-out: IC50 [M] (ProliFiler-140)
  IC50: 1.6e-06 M
JVM-3 (Blood), read-out: IC50 [M] (ProliFiler-140)
  IC50: 3.14e-08 M and 3.1e-08 M
Jurkat (Blood), read-out: IC50 [M] (ProliFiler-140)
  IC50: 9.37e-08 M and 9.4e-08 M
K562 (Blood), read-out: IC50 [M] (ProliFiler-140)
  IC50: 1.1e-06 M and 1.11e-06 M
KARPAS 299 (Blood), read-out: IC50 [M] (ProliFiler-140)
  IC50: 7.07e-07 M and 7.1e-07 M
KG-1 (Blood), read-out: IC50 [M] (ProliFiler-140)
  IC50: 6.22e-07 M and 6.2e-07 M
KG-1 a (Blood), read-out: IC50 [M] (ProliFiler-140)
  IC50: 5.5e-07 M
KMS-12-BM (Blood), read-out: IC50 [M] (ProliFiler-140)
  IC50: 3.43e-07 M and 3.4e-07 M
Kato III (Stomach), read-out: IC50 [M] (ProliFiler-140)
  IC50: 1.6e-06 M and 1.62e-06 M
LN229 (Brain), read-out: IC50 [M] (ProliFiler-140)
  IC50: 7.23e-07 M and 7.2e-07 M
LOU-NH91 (Lung), read-out: IC50 [M] (ProliFiler-140)
  IC50: 3.1e-07 M and 3.07e-07 M
LOVO (Colon), read-out: IC50 [M] (ProliFiler-140)
  IC50: 2.22e-07 M and 2.2e-07 M
LP-1 (Blood), read-out: IC50 [M] (ProliFiler-140)
  IC50: 7.2e-07 M and 7.16e-07 M
LnCap (Prostate), read-out: IC50 [M] (ProliFiler-140)
  IC50: 8.9e-07 M and 8.94e-07 M
M07e (Blood), read-out: IC50 [M] (ProliFiler-140)
  IC50: 1.38e-07 M and 1.4e-07 M
MCAS (Ovary), read-out: IC50 [M] (ProliFiler-140)
  IC50: 8.2e-07 M and 8.18e-07 M
MCF-7 (Breast), read-out: IC50 [M] (ProliFiler-140)
  IC50: 2.1e-07 M and 2.15e-07 M
MDA MB 231 (Breast), read-out: IC50 [M] (ProliFiler-140)
  IC50: 7.4e-07 M
MDA MB 435 (Skin), read-out: IC50 [M] (ProliFiler-140)
  IC50: 1.1e-06 M and 1.08e-06 M
MDA-MB-468 (Breast), read-out: IC50 [M] (ProliFiler-140)
  IC50: 1.5e-07 M and 1.48e-07 M
